Blank lines part the entries; values can stand above or below the molecule they belong to.
What was measured:
Histamine H1 receptor = Histamine H1 receptor (Homo sapiens, UniProt P35367)
[1] = Oral bioavailability in rat; type: ADME, organism-based; conditions: in vivo
[2] = Oral bioavailability in dog; type: ADME, organism-based, Canis lupus familiaris; conditions: in vivo
Histamine H3 receptor [3] = molecular target: T1, Histamine H3 receptor (Homo sapiens, UniProt Q9Y5N1); assay: Binding affinity to human histamine H3 receptor
[4] = Half life in dog; type: ADME, organism-based, Canis lupus familiaris; conditions: in vivo
[5] = Half life in rat; type: ADME, organism-based; conditions: in vivo
Cavia porcellus [6] = assay: Antiinflammatory activity in iv dosed wheal and flare guinea pig model; type: functional; conditions: read-out: ID50 (the source's name)
Cavia porcellus [7] = assay: Antiinflammatory activity in po dosed wheal and flare guinea pig model; type: functional; conditions: read-out: ID50 (the source's name)
Histamine H3 receptor [8] = molecular target: T1, Histamine H3 receptor; assay: Inverse agonist activity at human histamine H3 receptor by GTPgammaS binding assay; type: functional
[9] = Oral bioavailability in monkey; type: ADME, organism-based, Macaca mulatta; conditions: rhesus monkey, in vivo
[10] = Half life in monkey; type: ADME, organism-based, Macaca mulatta; conditions: rhesus monkey, in vivo
Histamine H3 receptor [11] = molecular target: Histamine H3 receptor (Rattus norvegicus, UniProt Q9QYN8); assay: Binding affinity to rat cortical histamine H3 receptor
[12] = Oral bioavailability in rat at 1 mg/kg; type: ADME, organism-based; conditions: in vivo
[13] = Half life in rat at 1 mg/kg, po; type: ADME, organism-based; parameters: dose 1 mg/kg, route oral; conditions: in vivo
Rhesus monkey = assay: Reduction of food intake in rhesus monkey at 1 mg/kg; type: functional, Macaca mulatta; parameters: scale not given: the % may be the effect or the level left
Rattus norvegicus [14] = assay: Increase in paraventricular histamine levels in normal rat at 15 mg/kg, po; type: functional
[15] = Half life in human plasma; type: ADME, cell-free
[16] = Oral bioavailability in dog at 1 mg/kg; type: ADME, organism-based, Canis lupus familiaris; conditions: in vivo
[17] = Oral bioavailability in monkey at 1 mg/kg; type: ADME, organism-based, Macaca mulatta; conditions: rhesus monkey, in vivo
[18] = Volume of distribution in rat; type: ADME, organism-based; conditions: in vivo
Rattus norvegicus [19] = assay: Efficacy in sc dosed novel object recognition 24 hrs delay rat model; type: functional; conditions: read-out: MED
Rattus norvegicus [20] = assay: Increase in acetyl choline release in sc dosed rat prefrontal cortex; type: functional; conditions: read-out: MED
Rattus norvegicus [21] = assay: Increase in histamine release in sc dosed rat prefrontal cortex; type: functional; conditions: read-out: MED

T1 sequence (Q9Y5N1 whole entry): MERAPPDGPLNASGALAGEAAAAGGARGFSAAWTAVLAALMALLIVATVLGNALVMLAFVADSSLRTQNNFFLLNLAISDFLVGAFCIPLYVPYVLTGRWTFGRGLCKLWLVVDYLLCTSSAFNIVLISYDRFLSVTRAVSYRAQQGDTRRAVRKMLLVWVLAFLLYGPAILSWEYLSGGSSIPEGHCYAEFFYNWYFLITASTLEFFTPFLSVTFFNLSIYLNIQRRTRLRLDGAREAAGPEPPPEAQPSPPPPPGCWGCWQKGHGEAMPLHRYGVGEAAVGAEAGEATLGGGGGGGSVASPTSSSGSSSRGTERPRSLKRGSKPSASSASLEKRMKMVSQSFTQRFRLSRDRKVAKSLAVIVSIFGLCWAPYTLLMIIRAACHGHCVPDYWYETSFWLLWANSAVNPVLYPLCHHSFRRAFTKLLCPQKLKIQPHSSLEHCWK
Histamine H1 receptor, sequence (P35367 whole entry): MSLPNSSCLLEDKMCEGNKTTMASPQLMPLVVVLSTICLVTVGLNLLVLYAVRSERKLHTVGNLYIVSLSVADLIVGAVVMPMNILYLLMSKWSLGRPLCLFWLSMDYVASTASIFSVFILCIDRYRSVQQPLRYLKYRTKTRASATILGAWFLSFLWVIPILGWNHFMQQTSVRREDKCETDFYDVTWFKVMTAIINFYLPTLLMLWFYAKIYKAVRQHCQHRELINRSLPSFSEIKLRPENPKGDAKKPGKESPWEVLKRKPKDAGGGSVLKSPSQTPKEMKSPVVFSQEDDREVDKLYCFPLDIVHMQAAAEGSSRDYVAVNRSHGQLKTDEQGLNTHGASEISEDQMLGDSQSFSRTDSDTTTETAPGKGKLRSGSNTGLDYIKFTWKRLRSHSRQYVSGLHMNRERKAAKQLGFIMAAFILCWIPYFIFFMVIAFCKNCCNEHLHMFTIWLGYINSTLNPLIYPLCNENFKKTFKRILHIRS
Histamine H3 receptor (Rattus norvegicus, UniProt Q9QYN8), sequence (Q9QYN8 whole entry): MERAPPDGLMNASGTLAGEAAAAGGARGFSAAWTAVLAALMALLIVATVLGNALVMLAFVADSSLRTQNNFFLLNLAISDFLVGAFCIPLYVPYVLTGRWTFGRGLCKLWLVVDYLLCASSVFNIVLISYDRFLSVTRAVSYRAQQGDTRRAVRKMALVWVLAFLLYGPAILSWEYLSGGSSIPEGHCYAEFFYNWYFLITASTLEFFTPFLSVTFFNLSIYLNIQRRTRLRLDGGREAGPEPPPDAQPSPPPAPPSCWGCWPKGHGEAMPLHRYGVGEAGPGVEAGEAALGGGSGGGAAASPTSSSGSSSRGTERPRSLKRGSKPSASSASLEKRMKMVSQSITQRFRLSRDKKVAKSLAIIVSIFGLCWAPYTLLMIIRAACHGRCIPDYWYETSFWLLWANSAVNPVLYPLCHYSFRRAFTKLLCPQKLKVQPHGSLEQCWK

Ki (Histamine H3 receptor [3]; read-out: pKi (converted)): 1.58 nM
SMILES: C[C@H]1CC[C@H](C)N1CCCOc1ccc(-c2ccc(C(=O)N3CCOCC3)cc2)cc1 (single isomer, unassigned) [A-349,821]

Ki (Histamine H3 receptor [11]; read-out: pKi (converted)): 0.631 nM
SMILES: CNC(=O)c1ccc(Oc2ccc3c(c2)CCN(C2CCC2)CC3)nc1 [GSK189254]

Ki (Histamine H1 receptor): 15.8 nM
SMILES: O=c1c2ccccc2c(Cc2ccc(Cl)cc2)nn1C[C@H]1CCCN1CCCCc1ccc(OCCCN2CCCCCC2)cc1 [GSK-1004723]

Vd [18]: > 100 L/kg | half-life [5]: 15 h
SMILES: c1cc(OCCCN2CCCCC2)ccc1CN1CCCCC1 [JNJ-5207852]

Further lines, the molecule ahead of its results:

SMILES: CS(=O)(=O)c1ccc(C(=O)N2CCN(c3ccc(OC4CCN(C5CCC5)CC4)cc3)CC2)cc1
Ki (Histamine H1 receptor): 2510 nM | bioavailability [1]: > 50% | bioavailability [2]: 90% | Ki (Histamine H3 receptor [3]; read-out: pKi (converted)): 0.316 nM | half-life [4]: 5 h | half-life [5]: 2 h

SMILES: CC1(C)CCCN(CCCOc2ccc(C3CCN(C(=O)c4ccc(CCC(=O)O)c5ccccc45)CC3)cc2)C1
Ki (Histamine H1 receptor): 12.6 nM | Ki (Histamine H3 receptor [3]; read-out: pKi (converted)): 50.1 nM | ED50 (Cavia porcellus [6]): 0.6 mg/kg | ED50 (Cavia porcellus [7]): 2.8 mg/kg

SMILES: CC(C)N1CCCN(C(=O)C2CCN(c3ccc(C(F)(F)F)nc3)CC2)CC1
IC50 (Histamine H3 receptor [8]): 2.51 nM | Ki (Histamine H3 receptor [3]; read-out: pKi (converted)): 0.316 nM

SMILES: N#Cc1ccc(-c2ccc(OCCCN3CCCN(C(=O)[C@@H](Cc4cscn4)NC(=O)c4ccco4)CC3)cc2)cc1
Ki (Histamine H3 receptor [3]; read-out: pKi (converted)): 1.58 nM

SMILES: C[C@@H]1CCCN1CCc1cc2cc(-c3cn[nH]c3)ccc2o1
bioavailability [1]: 26% | bioavailability [9]: 8% | half-life [10]: 1.8 h | Ki (Histamine H3 receptor [11]; read-out: pKi (converted)): 3.16 nM | bioavailability [2]: 30% | Ki (Histamine H3 receptor [3]; read-out: pKi (converted)): 0.501 nM | half-life [4]: 1.7 h | half-life [5]: 2.9 h

SMILES: C[C@@H]1CCCN1CCc1ccc2cc(-n3ncccc3=O)ccc2c1
bioavailability [12]: 84% | Ki (Histamine H3 receptor [3]; read-out: Ki): 0.8 nM | half-life [13]: 4.9 h

SMILES: O=C(/C=C/c1ccc(C(F)(F)F)cc1)N1CCC[C@H]1CN1CCCC1
Activity (Rhesus monkey): 75% | Activity (Rattus norvegicus [14]): 339%

SMILES: C[C@@H]1CCCN1CCc1ccc2cc(-c3ccc(C#N)cc3)ccc2c1
half-life [5]: 5.5 h

SMILES: C[C@@H](N)C(=O)N1CCN(CCCOc2ccc(C(=O)C3CC3)cc2)CC1
Ki (Histamine H3 receptor [3]; read-out: pKi (converted)): 794 nM

SMILES: C[C@H](Cc1c[nH]cn1)/N=C(\c1ccccc1)c1ccccc1O
half-life [15]: > 24 h

SMILES: C[C@@H]1CCCN1CCc1cc2cc(-c3ccc(C#N)cc3)ccc2o1
bioavailability [16]: 74% | bioavailability [12]: 52% | bioavailability [17]: 89%

SMILES: C[C@@H](NC(=O)c1ccco1)C(=O)N1CCN(CCCOc2ccc(C(=O)C3CC3)cc2)CC1
Ki (Histamine H3 receptor [11]; read-out: pKi (converted)): 0.631 nM

SMILES: Cc1cc2ncc(-c3ccc4cc(CCN5CCC[C@H]5C)ccc4n3)c(C)n2n1
bioavailability [1]: 90% | half-life [5]: 5.3 h

SMILES: CC(C)(C)CCC#C[C@@H]1C[C@H]1c1c[nH]cn1 [CIPRALISANT]
Ki (Histamine H3 receptor [11]; read-out: Ki): 0.18 nM

SMILES: CCNC(=O)[C@H]1C[C@@](F)(c2ccc(CN3CCCC3)c(F)c2)C1 [PF-03654746]
minimal effective dose (Rattus norvegicus [19]): 0.32 mg/kg | minimal effective dose (Rattus norvegicus [20]): 3.2 mg/kg | minimal effective dose (Rattus norvegicus [21]): 1 mg/kg

From ChEMBL document CHEMBL2150959, “Histamine H3 receptor as a drug discovery target” (J Med Chem, 2011)
